Source: US12281119B2, “Imidazo[2,1-f][1,2,4]triazin-4-amine derivatives as TLR7 agonist” (BEIGENE, LTD., priority 2019, dated 2025)

target: T1, human TLR7 (Homo sapiens, UniProt Q9NYK1); experiment: HEK293-Blue hTLR7 reporter assay (QUANTI-BLUE, SEAP readout); assay type: cell-based; design: host or cells: HEK293 (HEK-Blue-hTLR7); conditions: HEK-Blue-hTLR7 cells, QUANTI-BLUE assay (A1-A76), 24 hrs
T1 sequence (Q9NYK1 27-1049): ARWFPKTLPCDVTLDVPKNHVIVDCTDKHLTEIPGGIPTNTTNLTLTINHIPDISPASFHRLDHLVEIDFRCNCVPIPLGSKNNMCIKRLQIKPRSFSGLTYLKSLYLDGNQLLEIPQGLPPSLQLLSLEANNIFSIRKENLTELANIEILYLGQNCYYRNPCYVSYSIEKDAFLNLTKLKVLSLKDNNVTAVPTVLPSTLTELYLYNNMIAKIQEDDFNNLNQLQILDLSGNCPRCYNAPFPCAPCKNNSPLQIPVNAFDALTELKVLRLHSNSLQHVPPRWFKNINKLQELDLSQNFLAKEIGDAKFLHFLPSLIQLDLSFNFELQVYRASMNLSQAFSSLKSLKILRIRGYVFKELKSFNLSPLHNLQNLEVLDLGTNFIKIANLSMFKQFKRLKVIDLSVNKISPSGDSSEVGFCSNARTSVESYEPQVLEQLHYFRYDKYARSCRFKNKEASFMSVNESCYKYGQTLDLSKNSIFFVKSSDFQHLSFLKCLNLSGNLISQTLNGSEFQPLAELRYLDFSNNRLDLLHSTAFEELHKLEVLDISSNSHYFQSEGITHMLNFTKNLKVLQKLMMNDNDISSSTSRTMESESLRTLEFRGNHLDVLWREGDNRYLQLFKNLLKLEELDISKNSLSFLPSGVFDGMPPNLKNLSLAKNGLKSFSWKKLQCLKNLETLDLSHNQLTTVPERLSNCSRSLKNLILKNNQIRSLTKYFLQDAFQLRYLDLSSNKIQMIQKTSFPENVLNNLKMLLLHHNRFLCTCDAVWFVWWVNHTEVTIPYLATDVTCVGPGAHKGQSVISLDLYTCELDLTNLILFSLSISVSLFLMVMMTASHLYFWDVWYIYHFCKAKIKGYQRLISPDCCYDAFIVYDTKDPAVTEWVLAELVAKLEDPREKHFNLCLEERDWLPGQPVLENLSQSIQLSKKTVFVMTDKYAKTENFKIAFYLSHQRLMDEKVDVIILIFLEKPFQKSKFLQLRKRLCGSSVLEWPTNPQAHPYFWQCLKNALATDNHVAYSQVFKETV
Procedure: HEK293-Blue hTLR7 Reporter Assay:
HEK-Blue-hTLR7 cell line (Invivogen, Cat. No. hkb-htlr7) was designed so that the expression of the secreted embryonic alkaline phosphatase (SEAP) was induced by activating NF-κ and AP-1 via stimulating human TLR7 with TLR7 agonists.
HEK-Blue-hTLR7 cells were seeded at a density of 4×10^4 cells/well in a volume of 180 μL in a 96-well plate in DMEM (Cat. No. 11965-092) supplemented with 10% (v/v) heat-inactivated fetal bovine serum (FBS) (Gibco, 10099-1441), 100 U/ml penicillin and 100 μg/ml streptomycin (Gibco, 15140122) containing […], […] and 10% (v/v) heat-inactivated fetal bovine serum. The cells were settled for 5 hrs, then treated with increasing amounts of tested compounds at 37° C. for 24 hrs. Then 20 μL of the supernatant from each well was incubated with 180 uL Quanti-blue substrate solution at 37° C. for 10-30 mins before the activity of the SEAP was determined at 620-655 nm using a spectrophotometer. The EC50 value for each compound was calculated with GraphPad Prism software using the sigmoidal dose-response function.

Row | Structure (SMILES) | EC50 [µM]
1 | CCCCOc1nc(N)c2ncc(Cc3cccc(OCCCN(C)C)c3)n2n1 [Compound A23, 2-butoxy-7-(3-(3(dimethylamino)propoxy)benzyl)imidazo[2,1-f][1,2,4]triazin-4-amine] | > 10
2 | CCCCOc1nc(N)c2ncc(Cc3ccc(OCCCN)cc3)n2n1 [Compound A31, 7-(4-(3-aminopropoxy)benzyl)-2-butoxyimidazo[2,1-f][1,2,4]triazin-4-amine] | > 10
3 | Nc1nc(OCc2cccnc2)nn2c(Cc3ccc(CN4CCCC4)cc3)cnc12 [Compound A68, 2-(pyridin-3-ylmethoxy)-7-(4-(pyrrolidin-1-ylmethyl)benzyl)imidazo[2,1-f][1,2,4]triazin-4-amine] | > 10
4 | CCCCOc1nc(N)c2ncc(Cc3ccc4c(c3)CN(C(C)C)CC4)n2n1 [Compound A9, 2-butoxy-7-((2-isopropyl-1,2,3,4-tetrahydroisoquinolin-7-yl)methyl)imidazo[2,1-f][1,2,4]triazin-4-amine] | > 10
5 | CCCCOc1nc(N)c2ncc(C(O)c3ncccc3OC)n2n1 (stereo not shown) [Compound A56, (4-amino-2-butoxyimidazo[2,1-f][1,2,4]triazin-7-yl)(3-methoxypyridin-2-yl)methanol] | > 10
6 | CCCCOc1nc(N)c2ncc(Cc3ncccc3OC)n2n1 [Compound A55, 2-butoxy-7-((3-methoxypyridin-2-yl)methyl)imidazo[2,1-f][1,2,4]triazin-4-amine] | > 10
7 | CCCCOc1nc(N)c2ncc(Cc3ccc(Cn4cncn4)cc3)n2n1 [Compound A62, 7-(4-((1H-1,2,4-triazol-1-yl)methyl)benzyl)-2-butoxyimidazo[2,1-f][1,2,4]triazin-4-amine] | > 10
8 | CCCCOc1nc(N)c2ncc(Cc3ccc(OC)cn3)n2n1 [Compound A50, 2-butoxy-7-((5-methoxypyridin-2-yl)methyl)imidazo[2,1-f][1,2,4]triazin-4-amine] | > 10
9 | CCCCOc1nc(N)c2ncc(Cc3cnn(CC4CCCNC4)c3)n2n1 (stereo not shown) [Compound A76, 2-butoxy-7-((1-(piperidin-3-ylmethyl)-1H-pyrazol-4-yl)methyl)imidazo[2,1-f][1,2,4]triazin-4-amine] | > 10
10 | CCCCOc1nc(N)c2ncc(Cc3ccc(CC4CCNCC4)cc3)n2n1 [Compound A33, 2-butoxy-7-(4-(piperidin-4-ylmethyl)benzyl)imidazo[2,1-f][1,2,4]triazin-4-amine] | 1.06
11 | CCCCOc1nc(N)c2ncc(Cc3cccc(-c4ccc(CN5CCCC5)cc4)c3)n2n1 [Compound A25, 2-butoxy-7-((4′-(pyrrolidin-1-ylmethyl)-[1,1′-biphenyl]-3-yl)methyl)imidazo[2,1-f][1,2,4]triazin-4-amine] | > 10
12 | CCCCOc1nc(N)c2ncc(Cc3cccc(CN4CCOCC4)c3)n2n1 [Compound A12, 2-butoxy-7-(3-(morpholinomethyl)benzyl)imidazo[2,1-f][1,2,4]triazin-4-amine] | > 10
13 | Nc1nc(OCCCC(F)(F)F)nn2c(Cc3cccc(CN4CCCC4)c3)cnc12 [Compound A18, 7-(3-(pyrrolidin-1-ylmethyl)benzyl)-2-(4,4,4-trifluorobutoxy)imidazo[2,1-f][1,2,4]triazin-4-amine] | > 10
14 | CCCCOc1nc(N)c2ncc(Cc3cccc(CN4CCN(C)CC4)c3)n2n1 [Compound A13, 2-butoxy-7-(3-((4-methylpiperazin-1-yl)methyl)benzyl)imidazo[2,1-f][1,2,4]triazin-4-amine] | > 10
15 | CCCCOc1nc(N)c2ncc(Cc3ccc(CN4CCCC4)cc3)n2n1 [Compound A1, 2-butoxy-7-(4-(pyrrolidin-1-ylmethyl)benzyl)imidazo[2,1-f][1,2,4]triazin-4-amine] | 0.9
16 | CCCCOc1nc(N)c2ncc(Cc3ccc(CN)cc3)n2n1 [Compound A46, 7-(4-(aminomethyl)benzyl)-2-butoxyimidazo[2,1-f][1,2,4]triazin-4-amine] | > 10

Row | Structure (SMILES) | EC50 [µM]
17 | CCCCOc1nc(N)c2ncc(Cc3ccc(OCCCN(C)C)cc3F)n2n1 [Compound A36, 2-butoxy-7-(4-(3-(dimethylamino)propoxy)-2-fluorobenzyl)imidazo[2,1-f][1,2,4]triazin-4-amine] | 0.88
18 | Nc1nc(N)c2ncc(Cc3ccc(CN4CCCC4)cc3)n2n1 [Compound A52, 7-(4-(pyrrolidin-1-ylmethyl)benzyl)imidazo[2,1-f] [1,2,4]triazine-2,4-diamine] | > 10
19 | CCCCOc1nc(N)c2ncc(Cc3ccc(CN4CCC(Oc5ccccc5)CC4)cc3)n2n1 [Compound A47, 2-butoxy-7-(4-((4-phenoxypiperidin-1-yl)methyl)benzyl)imidazo[2,1-f][1,2,4]triazin-4-amine] | > 10
20 | CCCCOc1nc(N)c2ncc(Cc3ccc(OCCCN(C)C)cc3)n2n1 [Compound A2, 2-butoxy-7-(4-(3-(dimethylamino)propoxy)benzyl)imidazo[2,1-f][1,2,4]triazin-4-amine] | 0.92
21 | CCCCOc1nc(N)c2ncc(Cc3ccc(N(C)CCN(C)C)nc3)n2n1 [Compound A4, N^1-(5-((4-amino-2-butoxyimidazo[2,1-f][1,2,4]triazin-7-yl)methyl)pyridin-2-yl)-N^1,N^2,N^2-trimethylethane-1,2-diamine] | 1.85
22 | CCCCOc1nc(N)c2ncc(Cc3ccc(CN4CCN(CCCO)CC4)cc3)n2n1 [Compound A71, 3-(4-(4-((4-amino-2-butoxyimidazo[2,1-f][1,2,4]triazin-7-yl)methyl)benzyl)piperazin-1-yl)propan-1-ol] | 1.17
23 | CCCCOc1nc(N)c2ncc(Cc3ccc(CN4CCC(N(C)C)C4)cc3)n2n1 (stereo not shown) [Compound A44, 2-butoxy-7-(4-((3-(dimethylamino)pyrrolidin-1-yl)methyl)benzyl)imidazo[2,1-f][1,2,4]triazin-4-amine] | 1.01
24 | CCCCOc1nc(N)c2ncc(Cc3ccccc3CN3CCOCC3)n2n1 [Compound A14, 2-butoxy-7-(2-(morpholinomethyl)benzyl)imidazo[2,1-f][1,2,4]triazin-4-amine] | > 10
25 | COCCOc1nc(N)c2ncc(Cc3cccc(CN4CCCC4)c3)n2n1 [Compound A17, 2-(2-methoxyethoxy)-7-(3-(pyrrolidin-1-ylmethyl)benzyl)imidazo[2,1-f][1,2,4]triazin-4-amine] | > 10
26 | CCCCOc1nc(N)c2ncc(Cc3cccc(CN)c3)n2n1 [Compound A70, 7-(3-(aminomethyl)benzyl)-2-butoxyimidazo[2,1-f][1,2,4]triazin-4-amine] | > 10
27 | CCCCOc1nc(N)c2ncc(Cc3ccc(-c4ccc(CN5CCCC5)cc4)cc3)n2n1 [Compound A30, 2-butoxy-7-((4′-(pyrrolidin-1-ylmethyl)-[1,1′-biphenyl]-4-yl)methyl)imidazo[2,1-f][1,2,4]triazin-4-amine] | 3.52
28 | CCCCOc1nc(N)c2ncc(Cc3ccc(OCCCN(C)C)c(C(=O)OC)c3)n2n1 [Compound A57, methyl 5-((4-amino-2-butoxyimidazo[2,1-f][1,2,4]triazin-7-yl)methyl)-2-(3-(dimethylamino)propoxy)benzoate] | 0.375
29 | CCCCOc1nc(N)c2ncc(Cc3ccccc3CN3CCCCC3)n2n1 [Compound A15, 2-butoxy-7-(2-(piperidin-1-ylmethyl)benzyl)imidazo[2,1-f][1,2,4]triazin-4-amine] | > 10
30 | CCCCOc1nc(N)c2ncc(Cc3ccc(OCCN)nc3)n2n1 [Compound A37, 7-((6-(2-aminoethoxy)pyridin-3-yl)methyl)-2-butoxyimidazo[2,1-f][1,2,4]triazin-4-amine] | > 10
31 | CCCCOc1nc(N)c2ncc(Cc3ccc(OCCCN(CC)CC)cc3)n2n1 [Compound A29, 2-butoxy-7-(4-(3-(diethylamino)propoxy)benzyl)imidazo[2,1-f][1,2,4]triazin-4-amine] | 2.6
